# Data reported in ChEMBL document CHEMBL1142035.
# Target: MAP kinase-activated protein kinase 2 (Homo sapiens, UniProt P49137)
# Sequence (P49137 whole entry): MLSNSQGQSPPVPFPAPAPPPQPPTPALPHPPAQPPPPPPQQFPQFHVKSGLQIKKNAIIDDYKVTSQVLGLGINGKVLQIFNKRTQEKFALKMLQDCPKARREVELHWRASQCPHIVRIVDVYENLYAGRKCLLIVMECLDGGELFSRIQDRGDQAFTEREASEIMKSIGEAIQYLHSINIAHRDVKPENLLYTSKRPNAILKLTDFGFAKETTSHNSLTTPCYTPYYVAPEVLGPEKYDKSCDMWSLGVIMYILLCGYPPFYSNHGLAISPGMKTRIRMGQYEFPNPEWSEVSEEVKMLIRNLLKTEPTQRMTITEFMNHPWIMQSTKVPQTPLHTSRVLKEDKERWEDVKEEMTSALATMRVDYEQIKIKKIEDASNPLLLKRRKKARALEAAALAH
# Description: Concentration of 50% inhibition by compound towards mitogen activated protein kinase -activated protein kinase 2
row,SMILES,IC50
1,N#Cc1c(N)nc2c(c1N)Cc1ccccc1S2,> 200 µM
2,CCNc1cc2c(c(NCC)c1C#N)Cc1cc(O)c(O)cc1O2,> 200 µM

# Further lines, results first:
row,IC50,SMILES
1,> 200 µM,N#Cc1c(N)nc2c(c1N)Cc1ccccc1S2(=O)=O
2,> 200 µM,COc1ccc2c(c1)Oc1cc(N)c(C#N)c(N)c1C2c1ccccc1 (stereo not given)
3,> 200 µM,N#Cc1c(N)cc2c(c1N)C(c1ccccc1)c1ccc(O)cc1O2 (stereo not given)
